Experimental data taken from patent US9637483B2, “Heterocyclic compound” (TAKEDA PHARMACEUTICAL COMPANY LIMITED, priority 2013, dated 2017).

Tests used:
Format in all cases: biochemical
JAK1 = target: T1, JAK1 (Homo sapiens, UniProt P23458); test: JAK1 enzyme inhibition test (LANCE method); conditions: 1 μM test compound; for inhibition at 1 µM: read-out: JAK1 enzyme inhibitory activity (%, 1 μM)
T1 construct: purchased Invitrogen
In short: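 TR-FRET (LANCE) with ULight-JAK1 peptide (300 nM working solution) and ATP (150 μM working solution) in HEPES pH 7.5, MgCl2, EGTA, DTT buffer; 1 h at room temperature. EDTA stop plus Eu-anti-phosphotyrosine antibody, 665 nm read after 1 h. Inhibition relative to enzyme-free wells as 100%.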

JAK2 = target: T2, JAK2 (Homo sapiens, UniProt O60674); test: JAK2 enzyme inhibition test (LANCE method); conditions: 1 μM test compound; for inhibition at 1 µM: read-out: JAK2 enzyme inhibitory activity (%, 1 μM)
T2 construct: purchased Invitrogen
T2 sequence (O60674 whole entry): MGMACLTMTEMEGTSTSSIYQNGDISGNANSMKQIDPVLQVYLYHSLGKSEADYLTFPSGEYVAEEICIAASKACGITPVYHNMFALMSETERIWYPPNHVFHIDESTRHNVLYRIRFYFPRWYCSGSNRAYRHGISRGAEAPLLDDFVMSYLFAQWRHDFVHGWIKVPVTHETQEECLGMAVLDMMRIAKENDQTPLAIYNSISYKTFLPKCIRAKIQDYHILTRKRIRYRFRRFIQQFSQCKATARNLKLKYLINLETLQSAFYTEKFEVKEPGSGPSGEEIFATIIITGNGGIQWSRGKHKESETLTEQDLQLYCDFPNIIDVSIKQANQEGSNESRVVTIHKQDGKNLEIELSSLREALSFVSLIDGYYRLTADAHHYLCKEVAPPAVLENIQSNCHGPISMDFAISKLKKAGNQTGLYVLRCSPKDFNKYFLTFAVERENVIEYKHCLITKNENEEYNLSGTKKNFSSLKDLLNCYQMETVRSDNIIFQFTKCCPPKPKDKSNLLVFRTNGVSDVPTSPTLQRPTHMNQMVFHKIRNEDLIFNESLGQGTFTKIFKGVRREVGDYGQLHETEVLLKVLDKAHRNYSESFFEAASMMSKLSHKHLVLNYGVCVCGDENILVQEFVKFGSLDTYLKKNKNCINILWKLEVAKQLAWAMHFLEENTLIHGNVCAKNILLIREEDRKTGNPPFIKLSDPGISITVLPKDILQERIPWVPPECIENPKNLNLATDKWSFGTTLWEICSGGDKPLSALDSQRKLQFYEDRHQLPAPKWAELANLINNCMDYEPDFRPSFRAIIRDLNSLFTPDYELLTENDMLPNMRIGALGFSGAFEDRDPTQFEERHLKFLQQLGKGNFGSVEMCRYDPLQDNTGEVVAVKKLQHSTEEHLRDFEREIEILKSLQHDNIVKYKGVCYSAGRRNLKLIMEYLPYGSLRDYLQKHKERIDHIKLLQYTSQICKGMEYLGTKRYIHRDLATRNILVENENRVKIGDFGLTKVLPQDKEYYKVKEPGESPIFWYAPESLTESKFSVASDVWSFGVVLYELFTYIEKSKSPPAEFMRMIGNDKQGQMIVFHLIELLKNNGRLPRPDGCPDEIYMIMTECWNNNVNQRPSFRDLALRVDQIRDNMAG
In short: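 Recombinant JAK2 (6 ng/mL solution) phosphorylated ULight-JAK1 peptide (300 nM solution) with ATP (45 μM solution) in pH 7.5 HEPES/MgCl2/DTT buffer for 1 hr at room temperature. After EDTA stop and europium anti-phosphotyrosine antibody for 1 hr, TR-FRET read at 665 nm; inhibition relative to enzyme-free wells as 100%.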

JAK3 = target: T3, JAK3 (Homo sapiens, UniProt P52333); test: JAK3 enzyme inhibition test (LANCE method); conditions: 1 μM test compound; for inhibition at 1 µM: read-out: JAK3 enzyme inhibitory activity (%, 1 μM)
T3 construct: purchased Invitrogen
T3 sequence (P52333 1-1124): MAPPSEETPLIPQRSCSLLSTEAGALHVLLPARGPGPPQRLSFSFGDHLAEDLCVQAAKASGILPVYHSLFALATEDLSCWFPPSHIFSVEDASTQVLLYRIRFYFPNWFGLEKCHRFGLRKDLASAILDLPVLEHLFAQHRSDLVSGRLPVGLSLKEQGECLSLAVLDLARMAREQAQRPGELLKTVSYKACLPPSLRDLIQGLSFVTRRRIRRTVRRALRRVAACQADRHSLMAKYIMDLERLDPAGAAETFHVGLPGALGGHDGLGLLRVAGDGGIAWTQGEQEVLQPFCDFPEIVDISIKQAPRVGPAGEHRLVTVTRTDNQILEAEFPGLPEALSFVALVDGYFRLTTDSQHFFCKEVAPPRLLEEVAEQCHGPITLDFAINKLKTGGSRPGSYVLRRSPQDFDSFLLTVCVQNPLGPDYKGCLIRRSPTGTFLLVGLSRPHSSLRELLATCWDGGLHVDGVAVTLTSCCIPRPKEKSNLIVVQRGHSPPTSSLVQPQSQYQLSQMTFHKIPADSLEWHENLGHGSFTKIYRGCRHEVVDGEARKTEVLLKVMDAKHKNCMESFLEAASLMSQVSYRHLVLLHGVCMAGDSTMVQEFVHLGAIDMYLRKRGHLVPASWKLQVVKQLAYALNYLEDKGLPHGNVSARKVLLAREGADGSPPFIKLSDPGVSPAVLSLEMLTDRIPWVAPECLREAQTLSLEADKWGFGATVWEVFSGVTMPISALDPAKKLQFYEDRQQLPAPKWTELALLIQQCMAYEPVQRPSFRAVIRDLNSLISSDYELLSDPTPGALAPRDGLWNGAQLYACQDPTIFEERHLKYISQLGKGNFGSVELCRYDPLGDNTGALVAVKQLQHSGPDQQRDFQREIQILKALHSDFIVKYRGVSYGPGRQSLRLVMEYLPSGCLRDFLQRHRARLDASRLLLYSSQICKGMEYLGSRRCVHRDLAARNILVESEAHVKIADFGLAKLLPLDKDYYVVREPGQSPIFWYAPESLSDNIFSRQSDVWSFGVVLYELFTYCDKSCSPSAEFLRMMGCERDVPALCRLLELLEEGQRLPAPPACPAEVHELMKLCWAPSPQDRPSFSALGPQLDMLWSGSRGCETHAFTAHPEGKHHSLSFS
In short: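 Recombinant JAK3 (12 ng/mL solution) with ULight-JAK1 peptide (300 nM solution) and ATP (15 μM solution) in HEPES pH 7.5 buffer, 1 h at room temperature. EDTA stop with Eu-anti-phosphotyrosine antibody; TR-FRET at 665 nm. Inhibition relative to enzyme-free wells as 100%.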

TYK2 = target: T4, TYK2 (Homo sapiens, UniProt P29597); test: TYK2 enzyme inhibition test (LANCE method); conditions: 1 μM test compound; for inhibition at 1 µM: read-out: TYK2 enzyme inhibitory activity (%, 1 μM)
T4 construct: purchased Invitrogen
T4 sequence (P29597 whole entry): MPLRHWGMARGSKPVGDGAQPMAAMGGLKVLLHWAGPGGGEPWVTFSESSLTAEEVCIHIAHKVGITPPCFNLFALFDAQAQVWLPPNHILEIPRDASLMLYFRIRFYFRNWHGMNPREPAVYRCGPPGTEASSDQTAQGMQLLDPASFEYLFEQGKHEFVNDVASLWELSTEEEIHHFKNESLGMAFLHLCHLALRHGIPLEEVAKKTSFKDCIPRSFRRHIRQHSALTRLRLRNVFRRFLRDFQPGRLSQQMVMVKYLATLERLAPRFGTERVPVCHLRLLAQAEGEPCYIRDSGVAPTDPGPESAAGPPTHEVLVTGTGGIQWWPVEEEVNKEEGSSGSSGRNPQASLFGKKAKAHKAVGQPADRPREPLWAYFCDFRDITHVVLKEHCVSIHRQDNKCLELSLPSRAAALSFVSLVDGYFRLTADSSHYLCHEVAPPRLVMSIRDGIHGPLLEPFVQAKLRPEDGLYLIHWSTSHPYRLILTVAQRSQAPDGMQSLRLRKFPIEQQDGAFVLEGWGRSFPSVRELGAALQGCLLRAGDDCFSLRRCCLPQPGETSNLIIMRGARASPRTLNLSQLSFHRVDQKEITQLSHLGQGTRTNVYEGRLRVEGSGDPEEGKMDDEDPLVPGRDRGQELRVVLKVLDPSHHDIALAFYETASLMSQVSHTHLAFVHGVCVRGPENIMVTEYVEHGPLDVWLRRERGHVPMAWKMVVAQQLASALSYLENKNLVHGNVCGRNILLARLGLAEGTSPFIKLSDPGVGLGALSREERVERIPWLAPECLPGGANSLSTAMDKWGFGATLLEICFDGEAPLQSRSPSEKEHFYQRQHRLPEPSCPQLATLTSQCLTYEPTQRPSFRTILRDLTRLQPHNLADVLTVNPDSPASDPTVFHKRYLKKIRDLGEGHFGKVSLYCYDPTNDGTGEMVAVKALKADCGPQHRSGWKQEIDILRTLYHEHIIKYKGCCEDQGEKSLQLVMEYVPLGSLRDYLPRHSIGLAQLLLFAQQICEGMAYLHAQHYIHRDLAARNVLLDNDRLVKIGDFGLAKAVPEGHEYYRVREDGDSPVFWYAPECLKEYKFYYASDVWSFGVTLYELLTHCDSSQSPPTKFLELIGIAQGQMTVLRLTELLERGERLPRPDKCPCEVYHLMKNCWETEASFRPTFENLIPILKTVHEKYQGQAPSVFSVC
In short: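 Recombinant TYK2 (375 ng/mL working solution) with ULight-JAK1 peptide (300 nM working solution) and ATP (30 μM working solution) in HEPES pH 7.5 buffer with MgCl2, EGTA, DTT, Tween20, BSA, reacted 1 h at RT. EDTA-stopped, Eu-anti-phosphotyrosine TR-FRET read at 665 nm; inhibition relative to enzyme-free wells as 100%.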

T1 sequence (P23458 whole entry): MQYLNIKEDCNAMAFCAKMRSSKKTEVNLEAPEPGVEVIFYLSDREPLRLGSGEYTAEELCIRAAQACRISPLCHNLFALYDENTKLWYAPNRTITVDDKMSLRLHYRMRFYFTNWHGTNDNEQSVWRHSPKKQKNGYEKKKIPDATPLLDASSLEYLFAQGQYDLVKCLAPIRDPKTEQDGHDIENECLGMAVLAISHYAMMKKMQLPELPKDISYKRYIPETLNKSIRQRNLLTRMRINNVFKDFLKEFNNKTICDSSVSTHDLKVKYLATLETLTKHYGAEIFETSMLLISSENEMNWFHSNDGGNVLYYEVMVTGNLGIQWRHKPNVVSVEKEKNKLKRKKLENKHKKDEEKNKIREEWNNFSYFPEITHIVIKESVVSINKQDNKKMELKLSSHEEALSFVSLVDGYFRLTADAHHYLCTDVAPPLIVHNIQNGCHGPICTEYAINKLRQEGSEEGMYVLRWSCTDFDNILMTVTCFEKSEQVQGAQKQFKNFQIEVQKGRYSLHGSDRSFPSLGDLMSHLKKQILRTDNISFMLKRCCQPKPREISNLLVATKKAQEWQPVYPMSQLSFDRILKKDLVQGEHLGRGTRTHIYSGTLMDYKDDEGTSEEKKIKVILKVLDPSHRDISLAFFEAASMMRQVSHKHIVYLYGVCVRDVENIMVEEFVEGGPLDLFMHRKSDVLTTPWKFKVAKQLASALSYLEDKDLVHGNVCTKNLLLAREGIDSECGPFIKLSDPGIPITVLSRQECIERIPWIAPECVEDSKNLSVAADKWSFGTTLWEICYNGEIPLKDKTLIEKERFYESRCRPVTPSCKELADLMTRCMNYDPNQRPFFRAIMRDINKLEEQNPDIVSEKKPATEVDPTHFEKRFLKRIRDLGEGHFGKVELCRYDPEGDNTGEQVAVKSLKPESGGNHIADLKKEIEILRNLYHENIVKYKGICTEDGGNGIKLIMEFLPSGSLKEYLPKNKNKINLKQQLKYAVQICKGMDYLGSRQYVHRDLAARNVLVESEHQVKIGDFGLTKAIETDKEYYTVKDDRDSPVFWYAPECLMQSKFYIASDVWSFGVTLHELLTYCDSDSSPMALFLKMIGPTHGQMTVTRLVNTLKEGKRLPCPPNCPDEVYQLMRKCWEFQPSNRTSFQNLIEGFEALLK

| Compound | JAK1 enzyme inhibitory activity (%, 1 μM) (JAK1) | JAK2 enzyme inhibitory activity (%, 1 μM) (JAK2) | JAK3 enzyme inhibitory activity (%, 1 μM) (JAK3) | TYK2 enzyme inhibitory activity (%, 1 μM) (TYK2) | inhibition at 1 µM (JAK1) | inhibition at 1 µM (JAK2) | inhibition at 1 µM (JAK3) | inhibition at 1 µM (TYK2) |
| --- | --- | --- | --- | --- | --- | --- | --- | --- |
| COC1(c2cc(-c3cn(C(C#N)C(C)C)c(=O)c4c(N)n[nH]c34)nn2C)CCC(F)(F)CC1 (centres unmarked) [Example 138, 2-(3-amino-7-(5-(4,4-difluoro-1-methoxycyclohexyl)-1-methyl-1H-pyrazol-3-yl)-4-oxo-1,4-dihydro-5H-pyrazolo[4,3-c]pyridin-5-yl)-3-methylbutanenitrile] | 96% | 99% | 99% | 99% | – | – | – | – |
| COC1(c2cc(-c3cn(C(C#N)C(C)C)c(=O)c4c(N)n[nH]c34)nn2C)CCC(F)(F)CC1 (centres unmarked) [Example 139, 2-(3-amino-7-(5-(4,4-difluoro-1-methoxycyclohexyl)-1-methyl-1H-pyrazol-3-yl)-4-oxo-1,4-dihydro-5H-pyrazolo[4,3-c]pyridin-5-yl)-3-methylbutanenitrile] | 32% | 80% | 66% | 93% | – | – | – | – |
| CN(C)[C@H]1CCN(c2cc(-c3cn(-c4c(F)cccc4F)c(=O)c4c(N)n[nH]c34)nn2C)C1 [Example 140, 3-amino-5-(2,6-difluorophenyl)-7-(5-((3S)-3-(dimethylamino)pyrrolidin-1-yl)-1-methyl-1H-pyrazol-3-yl)-1,5-dihydro-4H-pyrazolo[4,3-c]pyridin-4-one] | – | – | – | – | 98% | 99% | 100% | 99% |
| Cn1nc(-c2cn(-c3c(F)cccc3F)c(=O)c3c(N)n[nH]c23)cc1N1CCC(C#N)CC1 [Example 141, 1-(3-(3-amino-5-(2,6-difluorophenyl)-4-oxo-4,5-dihydro-1H-pyrazolo[4,3-c]pyridin-7-yl)-1-methyl-1H-pyrazol-5-yl)piperidine-4-carbonitrile] | – | – | – | – | 98% | 99% | 100% | 100% |
| Cn1nc(-c2cn(-c3c(F)cccc3F)c(=O)c3c(N)n[nH]c23)cc1N1CCC[C@@H]1CC#N [Example 142, ((2R)-1-(3-(3-amino-5-(2,6-difluorophenyl)-4-oxo-4,5-dihydro-1H-pyrazolo[4,3-c]pyridin-7-yl)-1-methyl-1H-pyrazol-5-yl)pyrrolidin-2-yl)acetonitrile] | – | – | – | – | 98% | 98% | 99% | 98% |
| Cn1nc(-c2cn(-c3c(F)cccc3F)c(=O)c3c(N)n[nH]c23)cc1N1CCOCC1 [Example 143, 3-amino-5-(2,6-difluorophenyl)-7-(1-methyl-5-(morpholin-4-yl)-1H-pyrazol-3-yl)-1,5-dihydro-4H-pyrazolo[4,3-c]pyridin-4-one] | – | – | – | – | 99% | 98% | 99% | 100% |
| COC1(c2cc(-c3cn(-c4c(F)cccc4F)c(=O)c4c(N)n[nH]c34)nn2C)CN(S(=O)(=O)C(C)C)C1 [Example 144, 3-amino-5-(2,6-difluorophenyl)-7-(5-(1-(isopropylsulfonyl)-3-methoxyazetidin-3-yl)-1-methyl-1H-pyrazol-3-yl)-1,5-dihydro-4H-pyrazolo[4,3-c]pyridin-4-one] | – | – | – | – | 92% | 98% | 99% | 100% |
| CN(C)C[C@H]1CCCN1c1cc(-c2cn(C(C3CC3)C3CC3)c(=O)c3c(N)n[nH]c23)nn1C [Example 145, 3-amino-5-(dicyclopropylmethyl)-7-(5-((2R)-2-((dimethylamino)methyl)pyrrolidin-1-yl)-1-methyl-1H-pyrazol-3-yl)-1,5-dihydro-4H-pyrazolo[4,3-c]pyridin-4-one] | – | – | – | – | 89% | 98% | 99% | 100% |
